Measured values published in US11479533B2, “Inhibitors of Rho associated coiled-coil containing protein kinase” (KADMON CORPORATION, LLC, priority 2017, dated 2022).

Columns and labels:
[1] = target: recombinant ROCK2 (amino acids 1-552) (Homo sapiens (Human), UniProt O75116); assay: Z'-lyte kinase assay, ROCK2; assay type: biochemical
Method: Determination of compounds ROCK inhibitory activity in vitro (Z'lyte assay): recombinant ROCK1 (amino acids 1-535) and ROCK2 (amino acids 1-552) proteins were purchased from ThermoFisher Scientific. Compounds activities were measured by Z'-lyte kinase kit (ThermoFisher Scientific) and IC50s were calculated.
Compounds activities were measured by Z'-lyte kinase kit (ThermoFisher Scientific). […] IC50s were calculated using the GraphPad Prism software with kinase activities data that were collected from 9 points serial dilution of compounds treatment. The ROCK inhibition in A7R5 cells and NIH3T3 (Acta2-Luc) cells was performed as described above.
The percent inhibition rate was calculated by normalizing the kinase activity value obtained with compound treatment against DMSO control value and then applied to the equation, […]. IC50's were calculated using the nonlinear regression curve fit function of the GraphPad Prism software with kinase activities data measured with 9 points 2-fold serial dilution of compounds treatment.

[2] = test system: ppMlc (T18/S19) levels in A7R5 cells; assay: A7R5 in-cell ELISA assay (ppMlc); assay type: cell-based, rat; conditions: Rattus norvegicus, A7R5, A7R5 cells, Table 2; read-out: pMLC IC50 (nM) A7R5
Method: Determination of compounds ROCK inhibitory activity in A7R5 cells: rat aortic smooth muscle cell line A7R5 cells were maintained and treated in DMEM medium with 10% of fetal bovine serum. Cells were seeded with density of 5,000 cells/well in 96-well plates for 24 hours and subsequently treated 90 min with testing compounds. Cells were then fixed and processed according to the In-Cell ELISA Colorimetric Detection Kit manual (Thermo Scientific).
A7R5 cells were treated with 9 points 2 fold serial dilution of compounds and ppMlc (T18/S19) levels were determined in order to calculate the cellular IC50s of the compounds.
An A7R5 in-cell ELISA assay was performed to determine ROCK inhibition of test articles. A7R5 cells were treated with 9 points 2-fold serial dilution of compounds and ppMlc (T18/S19) levels were determined to calculate cellular IC50 values of the compounds. […] A7R5 cells were treated with 9 points 2-fold serial dilution of compounds and ppMlc (T18/S19) levels were determined to calculate cellular IC50 values of the compounds using the nonlinear regression curve fit function of the GraphPad Prism software.

[3] = test system: ACTA2-promoter-driven-luciferase in NIH3T3 cells; assay: NIH3T3 Acta2-promoter driven-luciferase assay; assay type: cell-based; conditions: Mus musculus, plus TGFβ1, 24 hr, read-out: NIH3T3, Acta2-luc, IC50
Method: NIH3T3 cells Acta2-promoter driven-luciferase assay: A NIH3T3 cell line stably expressing a luciferase reporter driven by the human ACTA2 gene promoter (−1000-1 bp) was established (NIH3T3-Acta2-luciferase). The cells were plated to confluence and treated with the test compounds plus TGFβ1 for 24 hr. Cells were then lysed and luciferase activity was measured using the LightSwitch luciferase kit from Active Motif.
ROCK inhibitors can be effectively rank ordered by ACTA2-promoter-driven-luciferase reporter cell assay. NIH3T3 cells stably expressing ACTA2-promoter-driven-luciferase were applied to measure ROCK compounds functional IC50's in cells. Cells were plated in 96 well plates to confluence and treated with 9 points serial dilution of compounds in combination with TGFβ1 for 24 hr. Luciferase activities were measured and compound's IC50's were calculated using the nonlinear regression curve fit function of the GraphPad Prism software. Compounds of the invention gave in cell IC50's under 200 nM, see FIG. 1c.

recombinant ROCK2 (amino acids 1-552), sequence (O75116 1-552): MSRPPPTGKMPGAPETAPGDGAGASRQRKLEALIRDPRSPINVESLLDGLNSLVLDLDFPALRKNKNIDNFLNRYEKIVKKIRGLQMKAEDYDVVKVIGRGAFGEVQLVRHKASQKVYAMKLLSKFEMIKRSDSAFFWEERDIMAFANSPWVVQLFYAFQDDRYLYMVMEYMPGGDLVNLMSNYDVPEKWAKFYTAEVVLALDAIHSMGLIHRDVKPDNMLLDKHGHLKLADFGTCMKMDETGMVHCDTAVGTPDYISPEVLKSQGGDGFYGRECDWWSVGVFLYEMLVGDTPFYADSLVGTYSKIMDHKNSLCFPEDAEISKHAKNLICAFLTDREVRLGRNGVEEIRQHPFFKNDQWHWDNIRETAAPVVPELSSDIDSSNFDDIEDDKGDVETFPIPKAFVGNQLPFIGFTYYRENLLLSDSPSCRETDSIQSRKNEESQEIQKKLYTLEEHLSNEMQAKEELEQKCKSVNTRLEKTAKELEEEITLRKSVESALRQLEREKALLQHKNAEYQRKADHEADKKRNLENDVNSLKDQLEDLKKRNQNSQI

Row | Compound | IC50 [1] | IC50 [2] | IC50 [3] | inhibition at 0.5 µM ([1]; @ 0.5 μM, read-out: ROCK2 % inh (0.5 μM))
1 | CN[C@@H](C(=O)Nc1ccc(-c2cn[nH]c2)cc1)c1cccc(OC)c1 [Example 3, (R)—N-(4-(1H-pyrazol-4-yl)phenyl)-2-(3-methoxyphenyl)-2-(methylamino)acetamide] | 12 nM | 222 nM | 157 nM | 
2 | CN[C@H](C(=O)Nc1ccc(-c2cn[nH]c2)cc1)c1cccc(OC)c1 [Example 4, (S)—N-(4-(1H-pyrazol-4-yl)phenyl)-2-(3-methoxyphenyl)-2-(methylamino)acetamide] | 3 nM | 108 nM | 110 nM | 
3 | CNC(C(=O)Nc1ccc(-c2cn[nH]c2)cc1)c1ccc(OC)cc1 (stereo not drawn) [Example 9, N-(4-(1H-pyrazol-4-yl)phenyl)-2-(4-methoxyphenyl)-2-(methylamino)acetamide] | 15.4 nM | 355 nM |  | 
4 | CCNC(C(=O)Nc1ccc(-c2cn[nH]c2)cc1)c1ccc(OC)cc1 (stereo not drawn) [Example 10, N-(4-(1H-pyrazol-4-yl)phenyl)-2-(ethylamino)-2-(4-methoxyphenyl)acetamide] | 21 nM | 255 nM | 1280 nM | 
5 | CCNC(C(=O)Nc1ccc(-c2cn[nH]c2)cc1)c1ccc(C)cc1 (stereo not drawn) [Example 11, N-(4-(1H-pyrazol-4-yl)phenyl)-2-(ethylamino)-2-(p-tolyl)acetamide] | 4 nM | 69 nM | 106 nM | 
6 | CCNC(C(=O)Nc1ccc(-c2cn[nH]c2)cc1)c1ccc(F)cc1 (stereo not drawn) [Example 12, N-(4-(1H-pyrazol-4-yl)phenyl)-2-(ethylamino)-2-(4-fluorophenyl)acetamide] | 30 nM | 458 nM | 735 nM | 
7 | CCNC(C(=O)Nc1ccc(-c2cn[nH]c2)cc1)c1cccc(OC)c1 (stereo not drawn) [Example 13, N-(4-(1H-pyrazol-4-yl)phenyl)-2-(ethylamino)-2-(3-methoxyphenyl)acetamide] | 6.3 nM | 425 nM | 1570 nM | 
8 | CNC(C(=O)Nc1ccc(-c2cn[nH]c2)cc1)c1cccc(C)c1 (stereo not drawn) [Example 14, N-(4-(1H-pyrazol-4-yl)phenyl)-2-(methylamino)-2-(m-tolyl)acetamide] | 6.8 nM | 353 nM | 496 nM | 
9 | CCNC(C(=O)Nc1ccc(-c2cn[nH]c2)cc1)c1cccc(F)c1 (stereo not drawn) [Example 15, N-(4-(1H-pyrazol-4-yl)phenyl)-2-(ethylamino)-2-(3-fluorophenyl)acetamide] | 24 nM | 655 nM | 1050 nM | 
10 | CCNC(C(=O)Nc1ccc(-c2cn[nH]c2)cc1)c1cccc(Cl)c1 (stereo not drawn) [Example 16, N-(4-(1H-pyrazol-4-yl)phenyl)-2-(3-chlorophenyl)-2-(ethylamino)acetamide] | 3.5 nM | 292 nM | 376 nM | 
11 | CNC(C(=O)Nc1ccc(-c2cn[nH]c2)cc1)c1ccc(C)cc1 (stereo not drawn) [Example 21, N-(4-(1H-pyrazol-4-yl)phenyl)-2-(methylamino)-2-(p-tolyl)acetamide] | 3.1 nM | 47 nM | 66 nM | 
12 | CCNC(C(=O)Nc1ccc(-c2cn[nH]c2)cc1)c1ccc(Cl)cc1 (stereo not drawn) [Example 22, N-(4-(1H-pyrazol-4-yl)phenyl)-2-(4-chlorophenyl)-2-(ethylamino)acetamide] | 8.9 nM | 169 nM | 155 nM | 
13 | CNC(C(=O)Nc1ccc(-c2cn[nH]c2)cc1)c1ccc(OC)c(F)c1 (stereo not drawn) [Example 23, N-(4-(1H-pyrazol-4-yl)phenyl)-2-(3-fluoro-4-methoxyphenyl)-2-(methylamino)acetamide] |  | 435 nM | 252 nM | 91%
14 | COCCNC(C(=O)Nc1ccc(-c2cn[nH]c2)cc1)c1cccc(OC)c1 (stereo not drawn) [Example 25, N-(4-(1H-pyrazol-4-yl)phenyl)-2-((2-methoxyethyl)amino)-2-(3-methoxyphenyl)acetamide] | 94 nM | 692 nM | 663 nM | 
15 | CNCCNC(C(=O)Nc1ccc(-c2cn[nH]c2)cc1)c1cccc(OC)c1 (stereo not drawn) [Example 26, N-(4-(1H-pyrazol-4-yl)phenyl)-2-(3-methoxyphenyl)-2-((2-(methylamino)ethyl)amino)acetamide] | 5.3 nM | 152 nM | 251 nM | 
16 | CNC(C(=O)Nc1ccc(-c2cn[nH]c2)cc1)c1ccc2nc(C)sc2c1 (stereo not drawn) [Example 27, N-(4-(1H-pyrazol-4-yl)phenyl)-2-(methylamino)-2-(2-methylbenzo[d]thiazol-6-yl)acetamide] | 65 nM | 1680 nM | 699 nM | 
17 | CNC(C(=O)Nc1ccc(-c2cn[nH]c2)cc1)c1cccc(N(C)C)c1 (stereo not drawn) [Example 28, N-(4-(1H-pyrazol-4-yl)phenyl)-2-(3-(dimethylamino)phenyl)-2-(methylamino)acetamide] | 82 nM | 947 nM | 335 nM | 
18 | CNC(C(=O)Nc1ccc(-c2cn[nH]c2)cc1)c1ccnc(OC)c1 (stereo not drawn) [Example 29, N-(4-(1H-pyrazol-4-yl)phenyl)-2-(2-methoxypyridin-4-yl)-2-(methylamino)acetamide] | 14 nM | 647 nM | 146 nM | 
19 | CNC(C(=O)Nc1ccc(-c2cn[nH]c2)cc1)c1cccc(C(=O)OC)c1 (stereo not drawn) [Example 30, Methyl 3-(2-((4-(1H-pyrazol-4-yl)phenyl)amino)-1-(methylamino)-2-oxoethyl)benzoate] | 18 nM | 247 nM | > 5000 nM | 
20 | CNC(C(=O)Nc1ccc(-c2cn[nH]c2)cc1)c1ccc(N(C)C)cc1 (stereo not drawn) [Example 31, N-(4-(1H-pyrazol-4-yl)phenyl)-2-(4-(dimethylamino)phenyl)-2-(methylamino)acetamide] | 55 nM | 667 nM | 1230 nM | 
21 | CNC(C(=O)Nc1ccc(-c2cn[nH]c2)cc1)c1cccc(C(=O)O)c1 (stereo not drawn) [Example 32, 3-(2-((4-(1H-pyrazol-4-yl)phenyl)amino)-1-(methylamino)-2-oxoethyl)benzoic acid] | 31 nM | > 5000 nM | > 5000 nM | 
22 | CNCCCNC(C(=O)Nc1ccc(-c2cn[nH]c2)cc1)c1cccc(OC)c1 (stereo not drawn) [Example 42, N-(4-(1H-pyrazol-4-yl)phenyl)-2-(3-methoxyphenyl)-2-((3-(methylamino)-propyl)amino)acetamide] | 6.5 nM | 359 nM |  | 
23 | COCC(C)(C)NC(C(=O)Nc1ccc(-c2cn[nH]c2)cc1)c1cccc(OC)c1 (stereo not drawn) [Example 43, N-(4-(1H-pyrazol-4-yl)phenyl)-2-((1-methoxy-2-methylpropan-2-yl)amino)-2-(3-methoxyphenyl)acetamide] | 47 nM | 1490 nM |  | 
24 | COCCNC(C(=O)N(C)c1ccc(-c2cn[nH]c2)cc1)c1cccc(OC)c1 (stereo not drawn) [Example 49, N-(4-(1H-pyrazol-4-yl)phenyl)-2-((2-methoxyethyl)amino)-2-(3-methoxyphenyl)-N-methylacetamide] | > 1000 nM |  |  | 
25 | CNC(C(=O)Nc1cc(F)c(-c2cn[nH]c2)cc1OCCCN(C)C)c1cccc(OC)c1 (stereo not drawn) [Example 70, N-(2-(3-(dimethylamino)propoxy)-5-fluoro-4-(1H-pyrazol-4-yl)phenyl)-2-(3-methoxyphenyl)-2-(methylamino)acetamide] | 7.7 nM | 134 nM |  | 
26 | COc1cccc(C2C(=O)N(c3ccc(-c4cn[nH]c4)cc3)CCCN2CC2CC2)c1 (stereo not drawn) [Example 74, 1-(4-(1H-pyrazol-4-yl)phenyl)-4-(cyclopropylmethyl)-3-(3-methoxyphenyl)-1,4-diazepan-2-one] | > 1000 nM |  |  | 
27 | COc1cccc(C2C(=O)N(c3ccc(-c4cn[nH]c4)cc3)CCCN2CCN(C)C)c1 (stereo not drawn) [Example 75, 1-(4-(1H-pyrazol-4-yl)phenyl)-4-(2-(dimethylamino)ethyl)-3-(3-methoxyphenyl)-1,4-diazepan-2-one] | > 1000 nM |  |  | 
28 | CNCCN1CCCN(c2ccc(-c3cn[nH]c3)cc2)C(=O)C1c1cccc(OC)c1 (stereo not drawn) [Example 76, 1-(4-(1H-pyrazol-4-yl)phenyl)-3-(3-methoxyphenyl)-4-(2-(methylamino)ethyl)-1,4-diazepan-2-one] | 950 nM |  |  | 
